Measured values as given in patent US5621010A, “Urea derivatives and their use as ACAT inhibitors” (Nisshin Flour Milling Co., Ltd., priority 1993, dated 1997).

Key:
Human LDL = experiment: Antioxidative activity: inhibition of MDA formation from LDL incubated with cupric sulfate; type: biochemical; settings: compound 10^-5 M; cupric sulfate 5×10^-6 M; 5 hrs; compared with control
Experimental: Human LDL was incubated in the presence of cupric sulfate (5×10^-6 M) and in the presence or absence of a compound (10^-5 M) for 5 hrs. After the incubation, the peroxidation of low-density lipoproteins (LDL) is evaluated by the formation of malondialdehyde (MDA), which is a sort of lipid peroxides according to the method of Simon J. T. Mao et al. (J. Med. Chem., Vol. 34, pages 298-302, 1991). Activity of the compound is shown by percent inhibition of the MDA formation as compared with control.

[1] = tested on: ACAT (liver microsome fractions of male rabbits); experiment: ACAT inhibitory activity: formation of labelled cholesteryl esters from [1-14C]oleoyl-CoA and endogenous cholesterol; type: biochemical, rabbit; settings: compound added at 10^-7 M
Experimental: The enzyme preparation, ACAT was prepared from liver microsme fractions of male rabbits according to the method of E. E. Largis et al. (Journal of Lipid Research, Vol. 30, pages 681-690, 1989). The activity was calculated by assaying the amount of the labelled cholesteryl esters formed from [1-^14 C]oleoyl-CoA and endogenous cholesterol according to the method of Kazuichi NATORI et al. (Japan J. Pharmacol., Vol. 42, pages 517-523, 1986).
The result is shown in Table 1, in which percent inhibition of the formation of the labelled cholesteryl esters with a compound added at 10^-7 M is indicated as index for the ACAT inhibitory activity.

| SMILES | Antioxidant Activity (percent inhibition of the MDA formation) (Human LDL) [%] | ACAT Inhibition [1] [%] |
| --- | --- | --- |
| CN1CC2CC(NC(=O)Nc3ccccc3CCc3cc(C(C)(C)C)c(O)c(C(C)(C)C)c3)CC(C1)N2C (stereo not shown) [Example 39, N-[2-(3,5-di-tert-butyl-4-hydroxyphenethyl)phenyl]-N'-(3,9-dimethyl-3,9-diazabicyclo[3.3.1]-7-nonyl)urea] | 87 | 88 |
| CC(C)(C)CN1CCC(NC(=O)Nc2ccccc2CCc2cc(C(C)(C)C)c(O)c(C(C)(C)C)c2)CC1 [Example 97, N-[2-(3,5-di-tert-butyl-4-hydroxyphenethyl)phenyl]-N'-[1-(2,2-dimethylpropyl)-4-piperidyl]urea] | 96 | 89 |
| CC(C)(C)CC(C)(C)NC(=O)Nc1ccccc1CCc1cc(C(C)(C)C)c(O)c(C(C)(C)C)c1 [Example 14, N-[2-(3,5-di-tert-butyl-4-hydroxyphenethyl)phenyl]-N'-(2,4,4-trimethyl-2-pentyl)urea] | 98 | 93 |
| CC(C)(C)c1cc(CCc2ccccc2NC(=O)NCC(c2ccccc2)c2ccccc2)cc(C(C)(C)C)c1O [Example 6, N-[2-(3,5-di-tert-butyl-4-hydroxyphenethyl)phenyl]-N'-(2,2-diphenylethyl)urea] | 98 | 99 |
| CC(C)(C)c1cc(CCc2ccccc2NC(=O)NCC2CCCCC2)cc(C(C)(C)C)c1O [Example 90, N-[2-(3,5-di-tert-butyl-4-hydroxyphenethyl)phenyl]-N'-(cyclohexylmethyl)urea] | 93 | 92 |
| CC(C)(C)c1cc(CCc2ccccc2NC(=O)N(Cc2ccccc2)Cc2ccccc2)cc(C(C)(C)C)c1O [Example 42, N-[2-(3,5-di-tert-butyl-4-hydroxyphenethyl)phenyl]-N',N'-dibenzylurea] | 97 | 95 |
| CC(C)(C)c1cc(CCc2ccccc2NC(=O)NC2CCCCC2)cc(C(C)(C)C)c1O [Example 17, N-[2-(3,5-di-tert-butyl-4-hydroxyphenethyl)phenyl]-N'-cyclohexylurea] | 99 | 92 |
| CC(C)(C)c1cc(CCc2ccccc2NC(=O)NC2CCC(C(C)(C)C)CC2)cc(C(C)(C)C)c1O (stereo not shown) [Example 52, N-[2-(3,5-di-tert-butyl-4-hydroxyphenethyl)phenyl]-N'-(4-tert-butylcyclohexyl)urea] | 94 | 97 |
| CCCCCCCNC(=O)Nc1ccccc1CCc1cc(C(C)(C)C)c(O)c(C(C)(C)C)c1 [Example 12, N-[2-(3,5-di-tert-butyl-4-hydroxyphenethyl)phenyl]-N'-heptylurea] | 94 | 91 |
| CC(C)(C)c1cc(CCc2ccc(Cl)cc2NC(=O)NC2CCN(Cc3ccccc3)CC2)cc(C(C)(C)C)c1O [Example 183, N-[2-(3,5-di-tert-butyl-4-hydroxyphenethyl)-5-chlorophenyl]-N'-(1-benzyl-4-piperidyl)urea] | – | 91 |
| CC(C)(C)c1cc(CCc2ccccc2NC(=O)NC2CCN(Cc3ccc(F)cc3F)CC2)cc(C(C)(C)C)c1O [Example 80, N-[2-(3,5-di-tert-butyl-4-hydroxyphenethyl)phenyl]-N'-[1-(2,4-difluorobenzyl)-4-pyperidyl]urea] | 96 | 92 |
| CC(C)(C)c1cc(CCc2ccccc2NC(=O)N2CCN(Cc3ccccc3)CC2)cc(C(C)(C)C)c1O [Example 114, 1-Benzyl-4-[N-[2-(3,5-di-tert-butyl-4-hydroxyphenethyl)phenyl]carbamoyl]piperazine] | 98 | 82 |
| CC(C)(C)c1cc(CCc2ccccc2NC(=O)N2CCN(c3ccccc3)CC2)cc(C(C)(C)C)c1O [Example 124, 1-[N-[2-(3,5-di-tert-butyl-4-hydroxyphenethyl)phenyl]carbamoyl]-4-phenylpiperazine] | 95 | 81 |
| CC(C)(C)c1cc(CCc2ccccc2NC(=O)NC2CCCCCC2)cc(C(C)(C)C)c1O [Example 4, N-[2-(3,5-di-tert-butyl-4-hydroxyphenethyl)phenyl]-N'-cycloheptylurea] | 98 | 95 |
| CCOC(=O)[C@@H](NC(=O)Nc1ccccc1CCc1cc(C(C)(C)C)c(O)c(C(C)(C)C)c1)c1ccccc1 [Example 69, (S)-N-[2-(3,5-di-tert-butyl-4-hydroxyphenethyl)phenyl]-N'-(α-ethoxycarbonyl)benzylurea] | 95 | 96 |
| CC(C)=CCCC(C)=CCNC(=O)Nc1ccccc1CCc1cc(C(C)(C)C)c(O)c(C(C)(C)C)c1 [Example 13, N-[2-(3,5-di-tert-butyl-4-hydroxyphenethyl)phenyl]-N'-(3,7-dimethyl-2,6-octadienyl)urea] | 92 | 90 |
| CC(C)(C)c1cc(CCc2ccccc2NC(=O)NCC(C)(C)c2ccc(N3CCCC3)cc2)cc(C(C)(C)C)c1O [Example 141, N-[2-(3,5-di-tert-butyl-4-hydroxyphenethyl)phenyl]-N'-[2-[4-(1-pyrrolidinyl)phenyl]-2-methylpropyl]urea] | – | 86 |
| CC(C)(C)c1cc(/C=C/c2ccccc2NC(=O)N2CCC[C@H]3CCCC[C@H]32)cc(C(C)(C)C)c1O (relative stereo) [Example 159] | – | 97 |
| CCCN(C(=O)Nc1ccccc1CCc1cc(C(C)(C)C)c(O)c(C(C)(C)C)c1)C1CCN(Cc2ccccc2)CC1 [Example 146, N-[2-(3,5-di-tert-butyl-4-hydroxyphenethyl)phenyl]-N'-(1-benzyl-4-piperidyl)-N'-propylurea] | – | 85 |
| CC(C)(C)c1cc(CCc2cc(F)cc(F)c2NC(=O)N2CCC[C@H]3CCCC[C@H]32)cc(C(C)(C)C)c1O (relative stereo) [Example 166] | – | 100 |
| CC(C)(C)c1cc(CCc2cc(F)cc(F)c2NC(=O)NC2CCN(Cc3ccccc3)CC2)cc(C(C)(C)C)c1O.Cl [Example 167, N-[2-(3,5-di-tert-butyl-4-hydroxyphenethyl)-4,6-difluorophenyl]-N'-(1-benzyl-4-piperidyl)urea hydrochloride] | – | 100 |
| CC1(C)CCCN(C(=O)Nc2ccccc2CCc2cc(C(C)(C)C)c(O)c(C(C)(C)C)c2)C1 [Example 177, 1-[N-[2-(3,5-di-tert-butyl-4-hydroxyphenethyl)phenyl]carbamoyl]-3,3-dimethylpiperidine] | – | 98 |
| Cc1cccc(CCc2cc(C(C)(C)C)c(O)c(C(C)(C)C)c2)c1NC(=O)NC1CCN(Cc2ccccc2)CC1 [Example 168, N-[2-(3,5-di-tert-butyl-4-hydroxyphenethyl)-6-methylphenyl]-N'-(1-benzyl-4-piperidyl)urea] | – | 93 |
| CN(C(=O)Nc1c(F)cc(F)cc1CCc1cc(C(C)(C)C)c(O)c(C(C)(C)C)c1)C1CCN(Cc2ccccc2)CC1 [Example 165, N-[2-(3,5-di-tert-butyl-4-hydroxyphenethyl)-4,6-difluorophenyl]-N'-(1-benzyl-4-piperidyl)-N'-methylurea] | – | 99 |
| CC(C)(C)c1cc(CCc2ccccc2NC(=O)NCC(C)(C)c2ccc(F)cc2)cc(C(C)(C)C)c1O [Example 140, N-[2-(3,5-di-tert-butyl-4-hydroxyphenethyl)phenyl]-N'-[2-(4-fluorophenyl)-2-methylpropyl]urea] | – | 96 |
| CC(C)(C)c1cc(CCc2c(F)cccc2NC(=O)NC2CCN(Cc3ccccc3)CC2)cc(C(C)(C)C)c1O [Example 155, N-[2-(3,5-di-tert-butyl-4-hydroxyphenethyl)-3-fluorophenyl]-N'-(1-benzyl-4-piperidyl)urea] | – | 94 |
| CC(C)(C)c1cc(CCc2ccccc2NC(=O)N[C@H](C(=O)OCc2ccccc2)c2ccccc2)cc(C(C)(C)C)c1O [Example 173, (S)-N-[2-(3,5-di-tert-butyl-4-hydroxyphenethyl)phenyl]-N'-(α-benzyloxycarbonyl)benzylurea] | – | 95 |
| COc1cccc(CCc2cc(C(C)(C)C)c(O)c(C(C)(C)C)c2)c1NC(=O)NC1CCN(Cc2ccccc2)CC1 [Example 163, N-[2-(3,5-di-tert-butyl-4-hydroxyphenethyl)-6-methoxyphenyl]-N'-(1-benzyl-4-piperidyl)urea] | – | 81 |
